Consider two molecules from a compilation of properties of binary mixtures (doi:10.1016/j.molliq.2017.08.056).

The viscosity is the internal friction of a fluid under shear. Read a high viscosity as a thick fluid.

Molecules are shown by their SMILES. Where “and” joins values, the source holds several entries; their conditions need not be identical. Equal values may be shown once.

This series in a line: xn = mol fraction of the nth substance listed. To be noted: 101 kPa.

For the molecule `O` + CCCC[n+]1ccn(C)c1.[Br-], the electrical conductivity (288.15 K, x2 = 0) was 0.0001 S/m; the electrical conductivity (298.15 K, x2 = 0) amounted to 0.0001 S/m; the electrical conductivity (308.15 K, x2 = 0) was 0.0002 S/m. Further, the viscosity (288.15 K, x2 = 0) was found to be 1.133 mPa·s.

For the molecule `CCCC[n+]1ccn(C)c1.[Br-]` + O, the electrical conductivity is 0.0311 S/m and 0.0454 S/m and 0.0612 S/m (288.15 K, x1 = 0.0001); 0.0389 S/m and 0.0568 S/m and 0.0759 S/m (298.15 K, x1 = 0.0001); 0.069 S/m (308.15 K, x1 = 0.0001). Further, the viscosity was 0.892 mPa·s and 0.894 mPa·s (298.15 K, x1 = 0.0001); 0.731 mPa·s (308.15 K, x1 = 0.0001).
